Reference: the kinase profiling compilation of Christmann-Franck et al. (2016)

Legend:
Test in all cases: KINOMEscan competition binding
Conditions in all cases: compound 10.0 µM
TNK2 (human) = TNK2 (human) (UniProt Q07912)
TGFBR2 (human) = TGFBR2 (human) (UniProt P37173)
EIF2AK1 (human) = EIF2AK1 (human) (UniProt Q9BQI3)
LATS2 (human) = LATS2 (human) (UniProt Q9NRM7)
HIPK2 (human) = HIPK2 (human) (UniProt Q9H2X6)
PDPK1 (human) = PDPK1 (human) (UniProt O15530)
MAP4K1 (human) = MAP4K1 (human) (UniProt Q92918)
CDK13 (human) = CDK13 (human) (UniProt Q14004)
LRRK2 (human) = LRRK2 (human) (UniProt Q5S007)
Sequence of LRRK2 (human) (Q5S007 whole entry, looked up): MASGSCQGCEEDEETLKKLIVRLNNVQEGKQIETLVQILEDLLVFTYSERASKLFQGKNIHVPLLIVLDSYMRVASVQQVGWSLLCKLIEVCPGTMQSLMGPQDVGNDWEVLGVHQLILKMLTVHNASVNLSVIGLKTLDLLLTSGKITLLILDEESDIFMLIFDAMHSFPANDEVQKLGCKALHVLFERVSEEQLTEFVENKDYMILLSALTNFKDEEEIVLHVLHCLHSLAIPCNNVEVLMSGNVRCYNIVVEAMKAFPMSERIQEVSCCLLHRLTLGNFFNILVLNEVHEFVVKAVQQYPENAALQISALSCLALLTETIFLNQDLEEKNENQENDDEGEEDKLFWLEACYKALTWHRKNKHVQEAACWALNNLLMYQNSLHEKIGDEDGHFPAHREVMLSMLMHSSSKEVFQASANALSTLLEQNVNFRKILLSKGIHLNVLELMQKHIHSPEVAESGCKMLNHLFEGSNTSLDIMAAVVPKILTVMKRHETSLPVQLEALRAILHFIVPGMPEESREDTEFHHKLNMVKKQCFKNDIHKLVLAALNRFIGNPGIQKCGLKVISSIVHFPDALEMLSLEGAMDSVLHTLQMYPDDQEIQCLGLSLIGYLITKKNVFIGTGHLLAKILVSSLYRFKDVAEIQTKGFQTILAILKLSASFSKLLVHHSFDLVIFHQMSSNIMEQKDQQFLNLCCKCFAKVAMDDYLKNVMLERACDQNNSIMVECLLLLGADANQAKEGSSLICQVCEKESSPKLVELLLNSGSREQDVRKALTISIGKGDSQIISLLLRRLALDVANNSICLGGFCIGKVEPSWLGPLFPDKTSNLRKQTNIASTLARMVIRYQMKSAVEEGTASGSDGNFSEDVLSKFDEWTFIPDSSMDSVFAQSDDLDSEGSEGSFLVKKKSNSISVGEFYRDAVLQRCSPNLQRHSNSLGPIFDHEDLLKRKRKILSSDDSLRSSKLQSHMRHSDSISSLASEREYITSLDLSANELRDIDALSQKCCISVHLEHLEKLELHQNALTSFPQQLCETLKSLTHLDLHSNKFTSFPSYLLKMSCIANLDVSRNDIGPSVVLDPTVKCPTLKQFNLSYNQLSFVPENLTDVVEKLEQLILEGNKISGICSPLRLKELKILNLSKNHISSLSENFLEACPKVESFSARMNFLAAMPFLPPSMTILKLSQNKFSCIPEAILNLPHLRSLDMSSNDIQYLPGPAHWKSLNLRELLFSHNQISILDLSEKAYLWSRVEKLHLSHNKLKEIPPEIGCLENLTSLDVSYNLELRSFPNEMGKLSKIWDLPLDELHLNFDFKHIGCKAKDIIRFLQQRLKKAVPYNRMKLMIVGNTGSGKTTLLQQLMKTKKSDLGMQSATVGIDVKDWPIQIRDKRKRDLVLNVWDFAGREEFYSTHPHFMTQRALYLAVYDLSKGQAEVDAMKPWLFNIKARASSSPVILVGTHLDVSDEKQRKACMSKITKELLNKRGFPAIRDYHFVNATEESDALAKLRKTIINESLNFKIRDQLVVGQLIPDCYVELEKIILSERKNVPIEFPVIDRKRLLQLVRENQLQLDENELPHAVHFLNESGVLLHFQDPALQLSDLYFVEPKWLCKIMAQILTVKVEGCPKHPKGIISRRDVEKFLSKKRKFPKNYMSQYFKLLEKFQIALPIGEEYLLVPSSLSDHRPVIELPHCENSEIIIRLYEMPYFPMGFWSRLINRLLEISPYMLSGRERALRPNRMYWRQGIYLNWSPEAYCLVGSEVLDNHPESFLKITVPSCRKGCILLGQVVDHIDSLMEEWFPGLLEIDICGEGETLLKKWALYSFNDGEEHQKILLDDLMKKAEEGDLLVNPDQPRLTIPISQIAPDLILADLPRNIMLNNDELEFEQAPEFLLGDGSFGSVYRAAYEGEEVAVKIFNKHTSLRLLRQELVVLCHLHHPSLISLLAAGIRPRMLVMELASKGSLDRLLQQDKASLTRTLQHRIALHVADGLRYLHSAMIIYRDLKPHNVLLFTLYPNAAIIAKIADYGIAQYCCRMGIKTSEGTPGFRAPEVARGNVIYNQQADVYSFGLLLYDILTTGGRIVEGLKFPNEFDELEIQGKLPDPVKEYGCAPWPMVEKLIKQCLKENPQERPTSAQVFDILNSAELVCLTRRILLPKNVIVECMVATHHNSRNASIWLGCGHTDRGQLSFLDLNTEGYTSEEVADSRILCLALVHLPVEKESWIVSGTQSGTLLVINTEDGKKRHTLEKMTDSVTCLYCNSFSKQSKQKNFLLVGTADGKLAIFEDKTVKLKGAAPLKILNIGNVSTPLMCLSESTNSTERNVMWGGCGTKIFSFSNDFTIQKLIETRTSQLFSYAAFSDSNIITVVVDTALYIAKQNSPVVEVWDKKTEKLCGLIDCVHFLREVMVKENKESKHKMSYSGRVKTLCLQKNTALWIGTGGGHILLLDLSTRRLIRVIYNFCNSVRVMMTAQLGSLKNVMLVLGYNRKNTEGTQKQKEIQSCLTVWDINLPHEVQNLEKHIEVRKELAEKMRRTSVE

CAMK2A (human) = CAMK2A (human) (UniProt Q9UQM7)
Sequence of CAMK2A (human) (Q9UQM7 whole entry, looked up): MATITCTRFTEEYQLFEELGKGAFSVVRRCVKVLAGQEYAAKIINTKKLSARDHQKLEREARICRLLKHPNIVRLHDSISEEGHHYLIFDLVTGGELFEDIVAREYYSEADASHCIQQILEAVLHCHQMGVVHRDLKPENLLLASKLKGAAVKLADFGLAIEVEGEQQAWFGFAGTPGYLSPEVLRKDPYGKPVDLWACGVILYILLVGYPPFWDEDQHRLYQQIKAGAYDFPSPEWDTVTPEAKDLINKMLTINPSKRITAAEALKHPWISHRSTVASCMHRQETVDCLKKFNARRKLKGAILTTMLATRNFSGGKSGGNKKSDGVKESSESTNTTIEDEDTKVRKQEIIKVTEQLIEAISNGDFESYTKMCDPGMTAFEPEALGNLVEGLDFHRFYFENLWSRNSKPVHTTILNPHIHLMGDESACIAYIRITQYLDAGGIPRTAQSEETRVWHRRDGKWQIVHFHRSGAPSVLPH

PRKD2 (human) = PRKD2 (human) (UniProt Q9BZL6)
PRKG1 (human) = PRKG1 (human) (UniProt Q13976)
NUAK2 (human) = NUAK2 (human) (UniProt Q9H093)
CLK3 (human) = CLK3 (human) (UniProt P49761)
ANKK1 (human) = ANKK1 (human) (UniProt Q8NFD2)
RPS6KA4 KD1 (human) = RPS6KA4 KD1 (human) (UniProt O75676)
STK17B (human) = STK17B (human) (UniProt O94768)
[1] = biological target: TYK2 JH2 pseudokinase (human) (UniProt P29597)
DAPK1 (human) = DAPK1 (human) (UniProt P53355)
CDK7 (human) = CDK7 (human) (UniProt P50613)
Sequence of CDK7 (human) (P50613 whole entry, looked up): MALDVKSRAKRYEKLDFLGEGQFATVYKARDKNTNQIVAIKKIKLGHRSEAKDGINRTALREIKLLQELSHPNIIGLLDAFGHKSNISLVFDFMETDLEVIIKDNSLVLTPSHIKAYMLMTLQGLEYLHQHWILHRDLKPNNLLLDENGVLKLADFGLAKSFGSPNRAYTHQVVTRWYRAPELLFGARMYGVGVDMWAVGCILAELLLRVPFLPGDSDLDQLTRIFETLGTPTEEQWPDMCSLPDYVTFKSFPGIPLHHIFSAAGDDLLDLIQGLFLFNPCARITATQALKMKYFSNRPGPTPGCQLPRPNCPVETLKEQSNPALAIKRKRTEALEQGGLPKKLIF

MAPK15 (human) = MAPK15 (human) (UniProt Q8TD08)
RPS6KA1 KD2 (human) = RPS6KA1 KD2 (human) (UniProt Q15418)
DAPK2 (human) = DAPK2 (human) (UniProt Q9UIK4)
IGF1R (human) = IGF1R (human) (UniProt P08069)
IRAK1 (human) = IRAK1 (human) (UniProt P51617)
MAP3K5 (human) = MAP3K5 (human) (UniProt Q99683)
MAPK12 (human) = MAPK12 (human) (UniProt P53778)
EPHA6 (human) = EPHA6 (human) (UniProt Q9UF33)
RPS6KB1 (human) = RPS6KB1 (human) (UniProt P23443)
MAP2K6 (human) = MAP2K6 (human) (UniProt P52564)
RIPK4 (human) = RIPK4 (human) (UniProt P57078)
PIK3C2G (human) = PIK3C2G (human) (UniProt O75747)
CDKL1 (human) = CDKL1 (human) (UniProt Q00532)
TGFBR1 (human) = TGFBR1 (human) (UniProt P36897)
Sequence of TGFBR1 (human) (P36897 whole entry, looked up): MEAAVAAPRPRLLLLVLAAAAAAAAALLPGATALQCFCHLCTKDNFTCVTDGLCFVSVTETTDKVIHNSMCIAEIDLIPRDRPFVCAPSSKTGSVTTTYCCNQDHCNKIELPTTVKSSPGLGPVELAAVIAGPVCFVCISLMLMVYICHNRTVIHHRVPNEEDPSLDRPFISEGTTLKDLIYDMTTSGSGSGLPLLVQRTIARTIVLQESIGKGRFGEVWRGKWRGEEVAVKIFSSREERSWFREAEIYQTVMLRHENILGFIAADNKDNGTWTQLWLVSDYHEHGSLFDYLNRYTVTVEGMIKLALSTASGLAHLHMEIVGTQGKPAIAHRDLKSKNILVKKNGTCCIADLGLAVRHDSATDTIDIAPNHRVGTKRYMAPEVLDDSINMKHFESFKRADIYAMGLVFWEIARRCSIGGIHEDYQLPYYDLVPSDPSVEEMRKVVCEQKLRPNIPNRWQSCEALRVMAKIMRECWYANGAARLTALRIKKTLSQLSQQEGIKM

ICK (human) = ICK (human) (UniProt Q9UPZ9)
NTRK2 (human) = NTRK2 (human) (UniProt Q16620)
STK35 (human) = STK35 (human) (UniProt Q8TDR2)
Sequence of STK35 (human) (Q8TDR2 whole entry, looked up): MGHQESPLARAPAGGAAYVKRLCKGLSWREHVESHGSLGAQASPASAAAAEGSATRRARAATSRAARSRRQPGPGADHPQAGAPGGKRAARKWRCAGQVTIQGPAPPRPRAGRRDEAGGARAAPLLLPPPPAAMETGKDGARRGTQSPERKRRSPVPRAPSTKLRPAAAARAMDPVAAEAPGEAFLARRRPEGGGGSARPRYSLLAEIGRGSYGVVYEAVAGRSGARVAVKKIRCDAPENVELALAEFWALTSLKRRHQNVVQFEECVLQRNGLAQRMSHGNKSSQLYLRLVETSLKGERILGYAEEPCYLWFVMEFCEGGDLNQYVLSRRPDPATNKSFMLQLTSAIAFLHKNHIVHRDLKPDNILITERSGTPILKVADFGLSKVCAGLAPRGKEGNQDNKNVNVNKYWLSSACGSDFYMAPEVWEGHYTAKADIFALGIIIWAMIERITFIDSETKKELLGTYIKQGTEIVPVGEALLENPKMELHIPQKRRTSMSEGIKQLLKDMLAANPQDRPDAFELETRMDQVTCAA

AKT3 (human) = AKT3 (human) (UniProt Q9Y243)
CDK14 (human) = CDK14 (human) (UniProt O94921)
CDK2 (human) = CDK2 (human) (UniProt P24941)

Sequence of EIF2AK1 (human) (Q9BQI3 whole entry, looked up): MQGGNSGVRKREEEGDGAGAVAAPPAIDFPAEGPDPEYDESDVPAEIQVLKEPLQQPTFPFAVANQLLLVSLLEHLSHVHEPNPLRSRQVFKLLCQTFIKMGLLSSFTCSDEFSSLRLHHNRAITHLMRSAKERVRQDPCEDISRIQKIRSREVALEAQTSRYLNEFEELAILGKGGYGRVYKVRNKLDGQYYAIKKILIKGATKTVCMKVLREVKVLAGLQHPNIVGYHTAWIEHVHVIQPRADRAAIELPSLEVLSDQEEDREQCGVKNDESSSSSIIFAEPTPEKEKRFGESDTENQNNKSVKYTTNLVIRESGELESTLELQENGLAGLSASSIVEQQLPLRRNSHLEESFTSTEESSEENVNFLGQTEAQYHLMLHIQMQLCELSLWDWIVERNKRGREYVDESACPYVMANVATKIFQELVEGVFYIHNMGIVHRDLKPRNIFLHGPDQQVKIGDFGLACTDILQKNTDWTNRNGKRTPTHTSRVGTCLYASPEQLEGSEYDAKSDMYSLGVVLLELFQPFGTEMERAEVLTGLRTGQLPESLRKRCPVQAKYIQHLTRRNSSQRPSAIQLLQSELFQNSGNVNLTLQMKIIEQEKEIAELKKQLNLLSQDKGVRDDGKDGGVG

SMILES	kinase still bound, per cent of control (TNK2 (human))	kinase still bound, per cent of control (TGFBR2 (human))	kinase still bound, per cent of control (EIF2AK1 (human))	kinase still bound, per cent of control (LATS2 (human))	kinase still bound, per cent of control (PDPK1 (human))	kinase still bound, per cent of control (MAP4K1 (human))	kinase still bound, per cent of control (CDK13 (human))	kinase still bound, per cent of control (LRRK2 (human))	kinase still bound, per cent of control (CAMK2A (human))	kinase still bound, per cent of control (PRKD2 (human))	kinase still bound, per cent of control (PRKG1 (human))	kinase still bound, per cent of control (NUAK2 (human))	kinase still bound, per cent of control (CLK3 (human))	kinase still bound, per cent of control (ANKK1 (human))	kinase still bound, per cent of control (RPS6KA4 KD1 (human))	kinase still bound, per cent of control (STK17B (human))	kinase still bound, per cent of control [1]	kinase still bound, per cent of control (DAPK1 (human))	kinase still bound, per cent of control (CDK7 (human))	kinase still bound, per cent of control (MAPK15 (human))	other results
Cc1ccc2nc(NCCN)c3ncc(C)n3c2c1	100%	93%	87%	100%	100%	81%	4.7%	97%	78%	72%	100%	100%	47%	99%	100%	100%	15%	47%	6.3%	19%	kinase still bound, per cent of control (HIPK2 (human)): 58%; kinase still bound, per cent of control (RPS6KA1 KD2 (human)): 46%; kinase still bound, per cent of control (DAPK2 (human)): 65%; kinase still bound, per cent of control (IGF1R (human)): 90%; kinase still bound, per cent of control (IRAK1 (human)): 78%; kinase still bound, per cent of control (MAP3K5 (human)): 80%; kinase still bound, per cent of control (MAPK12 (human)): 100%; kinase still bound, per cent of control (EPHA6 (human)): 100%; kinase still bound, per cent of control (RPS6KB1 (human)): 96%; kinase still bound, per cent of control (MAP2K6 (human)): 88%; kinase still bound, per cent of control (RIPK4 (human)): 100%; kinase still bound, per cent of control (PIK3C2G (human)): 23%; kinase still bound, per cent of control (CDKL1 (human)): 74%; kinase still bound, per cent of control (TGFBR1 (human)): 100%; kinase still bound, per cent of control (ICK (human)): 100%; kinase still bound, per cent of control (NTRK2 (human)): 89%; kinase still bound, per cent of control (STK35 (human)): 90%; kinase still bound, per cent of control (AKT3 (human)): 100%; kinase still bound, per cent of control (CDK14 (human)): 100%
CCOc1cc2ncc(C#N)c(Nc3ccc(OCc4ccccn4)c(Cl)c3)c2cc1NC(=O)/C=C/CN(C)C	40%	100%	100%	100%	88%	45%	100%	99%	90%	50%	94%	8.8%	86%	100%	100%	46%	99%	98%	68%	100%	kinase still bound, per cent of control (HIPK2 (human)): 65%; kinase still bound, per cent of control (RPS6KA1 KD2 (human)): 85%; kinase still bound, per cent of control (DAPK2 (human)): 87%; kinase still bound, per cent of control (IGF1R (human)): 100%; kinase still bound, per cent of control (IRAK1 (human)): 65%; kinase still bound, per cent of control (MAP3K5 (human)): 100%; kinase still bound, per cent of control (MAPK12 (human)): 100%; kinase still bound, per cent of control (EPHA6 (human)): 99%; kinase still bound, per cent of control (RPS6KB1 (human)): 100%; kinase still bound, per cent of control (MAP2K6 (human)): 100%; kinase still bound, per cent of control (RIPK4 (human)): 77%; kinase still bound, per cent of control (PIK3C2G (human)): 100%; kinase still bound, per cent of control (CDKL1 (human)): 100%; kinase still bound, per cent of control (TGFBR1 (human)): 100%; kinase still bound, per cent of control (ICK (human)): 100%; kinase still bound, per cent of control (NTRK2 (human)): 95%; kinase still bound, per cent of control (AKT3 (human)): 100%; kinase still bound, per cent of control (CDK14 (human)): 97%
O=C(NOC[C@H](O)CO)c1ccc(F)c(F)c1Nc1ccc(I)cc1F	72%	100%	100%	74%	71%	77%	84%	86%	100%	100%	100%	99%	100%	64%	86%	100%	100%	100%	83%	100%	kinase still bound, per cent of control (RPS6KA1 KD2 (human)): 84%; kinase still bound, per cent of control (DAPK2 (human)): 100%; kinase still bound, per cent of control (IGF1R (human)): 87%; kinase still bound, per cent of control (IRAK1 (human)): 100%; kinase still bound, per cent of control (MAP3K5 (human)): 91%; kinase still bound, per cent of control (MAPK12 (human)): 100%; kinase still bound, per cent of control (CDK2 (human)): 91%; kinase still bound, per cent of control (EPHA6 (human)): 94%; kinase still bound, per cent of control (RPS6KB1 (human)): 100%; kinase still bound, per cent of control (MAP2K6 (human)): 100%; kinase still bound, per cent of control (RIPK4 (human)): 100%; kinase still bound, per cent of control (PIK3C2G (human)): 48%; kinase still bound, per cent of control (CDKL1 (human)): 78%; kinase still bound, per cent of control (TGFBR1 (human)): 100%; kinase still bound, per cent of control (ICK (human)): 84%; kinase still bound, per cent of control (NTRK2 (human)): 100%; kinase still bound, per cent of control (STK35 (human)): 83%; kinase still bound, per cent of control (AKT3 (human)): 89%; kinase still bound, per cent of control (CDK14 (human)): 100%
CCCS(=O)(=O)Nc1ccc(F)c(C(=O)c2c[nH]c3ncc(-c4ccc(Cl)cc4)cc23)c1F	6.9%	2.5%	60%	75%	70%	20%	100%	59%	100%	95%	100%	98%	92%	91%	90%	88%	100%	83%	82%	89%	kinase still bound, per cent of control (HIPK2 (human)): 66%; kinase still bound, per cent of control (RPS6KA1 KD2 (human)): 59%; kinase still bound, per cent of control (DAPK2 (human)): 95%; kinase still bound, per cent of control (IGF1R (human)): 93%; kinase still bound, per cent of control (IRAK1 (human)): 99%; kinase still bound, per cent of control (MAP3K5 (human)): 100%; kinase still bound, per cent of control (MAPK12 (human)): 93%; kinase still bound, per cent of control (EPHA6 (human)): 100%; kinase still bound, per cent of control (RPS6KB1 (human)): 86%; kinase still bound, per cent of control (MAP2K6 (human)): 57%; kinase still bound, per cent of control (RIPK4 (human)): 91%; kinase still bound, per cent of control (PIK3C2G (human)): 62%; kinase still bound, per cent of control (CDKL1 (human)): 100%; kinase still bound, per cent of control (TGFBR1 (human)): 53%; kinase still bound, per cent of control (ICK (human)): 73%; kinase still bound, per cent of control (NTRK2 (human)): 78%; kinase still bound, per cent of control (STK35 (human)): 100%; kinase still bound, per cent of control (AKT3 (human)): 100%; kinase still bound, per cent of control (CDK14 (human)): 100%
